This note sets out measurements from US10266548B2, “Substituted benzylindazoles for use as Bub1 kinase inhibitors in the treatment of hyperproliferative diseases” (Bayer Intellectual Property GmbH, priority 2011, dated 2019).

In one experiment the test system is HeLa cells. The experiment in a line: Proliferation assay (HeLa cell line). Format: cell-based. Here is the method: Cultivated tumor cells (cells were ordered from ATCC, except HeLa-MaTu and HeLa-MaTu-ADR, which were ordered from EPO-GmbH, Berlin) were plated at a density of 1000 to 5000 cells/well, depending on the growth rate of the respective cell line, in a 96-well multititer plate in 200 μL of their respective growth medium supplemented 10% fetal calf serum. After 24 hours, the cells of one plate (zero-point plate) were stained with crystal violet (see below), while the medium of the other plates was replaced by fresh culture medium (200 μl), to which the test substances were added in various concentrations (0 μM, as well as in the range of 0.001-10 μM; the final concentration of the solvent dimethyl sulfoxide was 0.5%). The cells were incubated for 4 days in the presence of test substances. Cell proliferation was determined by staining the cells with crystal violet: the cells were fixed by adding 20 μl/measuring point of an 11% glutaric aldehyde solution for 15 minutes at room temperature. After three washing cycles of the fixed cells with water, the plates were dried at room temperature. The cells were stained by adding 100 μl/measuring point of a 0.1% crystal violet solution (pH 3.0). After three washing cycles of the stained cells with water, the plates were dried at room temperature. The dye was dissolved by adding 100 μl/measuring point of a 10% acetic acid solution. […] The change of cell number, in percent, was calculated by normalization of the measured values to the aborbtion values of the zero-point plate (=0%) and the absorbtion of the untreated (0 μm) cells (=100%). The IC50 values were determined by means of a 4 parameter fit using the company's own software.

In experiment [1] the target is catalytic domain of human Bub1 (amino acids 704-1085) (Homo sapiens (Human), UniProt O43683). The experiment in a line: Bub1 kinase assay (TR-FRET). To be noted: 10 μM ATP, 1 μM peptide substrate; read-out: Biological Assay 1: Bub1 kinase assay median IC50. Format: biochemical. The protocol: To this end, 100-fold concentrated compound solutions (in DMSO) were previously prepared by serial dilution (1:3.4) of 2 mM stocks in a clear low volume 384-well source microtiter plate (Greiner Bio-One, Frickenhausen, Germany), from which 50 nl of compounds were transferred into a black low volume test microtiter plate from the same supplier. […] The resulting mixture (5 μl final volume) was incubated at 22° C. during 60 min., and the reaction was stopped by the addition of 5 μl of an aqueous EDTA-solution (50 mM EDTA, in 100 mM HEPES pH 7.5 and 0.2% (w/v) bovine serum albumin) which also contained the TR-FRET detection reagents (0.2 μM streptavidin-XL665 [Cisbio Bioassays, Codolet, France] and 1 nM anti-phosho-Serine antibody [Merck Millipore, cat. #35-001] and 0.4 nM LANCE EU-W1024 labeled anti-mouse IgG antibody [Perkin-Elmer, product no. AD0077, alternatively a Terbium-cryptate-labeled anti-mouse IgG antibody from Cisbio Bioassays can be used]). The stopped reaction mixture was further incubated 1 h at 22° C. in order to allow the formation of complexes between peptides and detection reagents. Subsequently, the amount of product was evaluated by measurement of the resonance energy transfer from the Eu-chelate-antlbody complex recognizing the Phosphoserlne residue to the streptavidin-XL665 bound to the biotin moiety of the peptide. […] IC50 values were calculated by fitting the normalized inhibition data to a 4-parameter logistic equation (Minimum, Maximum, IC50, Hill; Y=Max+(Min−Max)/(1+(X/IC50)Hill)) using a Bayer-proprietary analysis software.

Setting [2] is: 4 days, crystal violet, read-out: Biological Assay 2: Proliferation assay (HeLa cell line) median IC50.
Setting [3] is: Homo sapiens, 96 h, 4 days, crystal violet, read-out: Biological Assay 2: Proliferation assay (HeLa cell line) median IC50.
[4] abbreviates: Homo sapiens, 96 h, read-out: Biological Assay 2: Proliferation assay (HeLa cell line) median IC50.

The structures appear in SMILES notation. Counter-ions that a name gives are not always drawn. Like-named read-outs stand apart in the source and are kept apart here.

Chain of catalytic domain of human Bub1 (amino acids 704-1085) (O43683 704-1085): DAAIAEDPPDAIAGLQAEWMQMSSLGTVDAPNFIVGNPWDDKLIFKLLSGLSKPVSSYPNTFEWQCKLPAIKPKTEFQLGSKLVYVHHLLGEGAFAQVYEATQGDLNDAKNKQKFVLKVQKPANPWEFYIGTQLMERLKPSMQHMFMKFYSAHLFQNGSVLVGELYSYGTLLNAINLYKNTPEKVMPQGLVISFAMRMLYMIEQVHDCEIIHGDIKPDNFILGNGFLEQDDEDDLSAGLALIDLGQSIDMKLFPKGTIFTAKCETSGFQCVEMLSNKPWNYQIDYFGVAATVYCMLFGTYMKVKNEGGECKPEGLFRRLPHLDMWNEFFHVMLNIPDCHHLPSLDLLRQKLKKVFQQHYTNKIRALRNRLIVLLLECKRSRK

On to `CCOc1cc(F)c(Cn2nc(-c3ncc(OCC[S+](C)[O-])c(Nc4ccncc4)n3)c3ccccc32)c(F)c1` (single isomer, unassigned) [Example 36-1, 2-[1-(4-ethoxy-2,6-difluorobenzyl)-1H-indazol-3-yl]-5-[2-(methylsulfinyl)ethoxy]-N-(pyridin-4-yl)pyrimidin-4-amine], for which the IC50 in the experiment with HeLa cells (setting [2]) stood at 3.3 µM.
For `CCOc1cc(F)c(Cn2nc(-c3ncc(OCC[S+](C)[O-])c(Nc4ccncc4)n3)c3ccccc32)c(F)c1` (single isomer, unassigned) [Example 36-2, 2-[1-(4-ethoxy-2,6-difluorobenzyl)-1H-indazol-3-yl]-5-[2-(methylsulfinyl)ethoxy]-N-(pyridin-4-yl)pyrimidin-4-amine], the IC50 in the experiment with HeLa cells (setting [2]) came to 0.44 µM.
The same measure, in the same setting: the same measure for `CCOc1cc(F)c(Cn2nc(-c3ncc(OCC[S+](C)[O-])c(Nc4ccncc4)n3)c3ccccc32)c(F)c1` (single isomer, unassigned) [Example 36-3, 2-[1-(4-ethoxy-2,6-difluorobenzyl)-1H-indazol-3-yl]-5-[2-(methylsulfinyl)ethoxy]-N-(pyridin-4-yl)pyrimidin-4-amine]: 0.43 µM.
On to `COc1cnc(-c2nn(Cc3c(Cl)ccc(C)c3F)c3ccccc23)nc1Nc1ccncc1` [Example 2-1-1, 2-[1-(6-chloro-2-fluoro-3-methylbenzyl)-1H-indazol-3-yl]-5-methoxy-N-(pyridin-4-yl)pyrimidin-4-amine], for which the IC50 in experiment [1] worked out at 2.6 nM; in the experiment with HeLa cells (setting [3]) it was 3.8 µM.
Turning to `COc1cnc(-c2nn(Cc3c(Cl)ccc(OC)c3F)c3ccccc23)nc1Nc1ccncc1` [Example 2-2-1, 2-[1-(6-chloro-2-fluoro-3-methoxybenzyl)-1H-indazol-3-yl]-5-methoxy-N-(pyridin-4-yl)pyrimidin-4-amine], the IC50 in experiment [1] was 2.6 nM; in the experiment with HeLa cells (setting [3]) it was 3.4 µM.
The matching figures for `COc1cnc(-c2nn(Cc3cc(C)c(C)cc3Cl)c3ccccc23)nc1Nc1ccncc1` [Example 2-3-1, 2-[1-(2-chloro-4,5-dimethylbenzyl)-1H-indazol-3-yl]-5-methoxy-N-(pyridin-4-yl)pyrimidin-4-amine]: 4.4 nM and 3 µM.
As to `COc1cnc(-c2nn(Cc3ccc(S(F)(F)(F)(F)F)cc3)c3ccccc23)nc1Nc1ccncc1` [Example 2-3-3, 5-methoxy-2-{1-[4-(pentafluoro-λ^6-sulfanyl)benzyl]-1H-indazol-3-yl}-N-(pyridin-4-yl)pyrimidin-4-amine], the IC50 in experiment [1] is 360 nM; in the experiment with HeLa cells (setting [3]) it was 8.5 µM.
As to `COc1cnc(-c2nn(Cc3ccccc3C#N)c3ccccc23)nc1Nc1ccncc1` [Example 2-5-3, 2-({3-[5-methoxy-4-(pyridin-4-ylamino)pyrimidin-2-yl]-1H-indazol-1-yl}methyl) benzonitrile], the IC50 is 21 nM in experiment [1] and at least 10 µM in the experiment on HeLa cells (setting [4]).
In the case of `COc1ccc(Cn2nc(-c3ncc(OC)c(Nc4ccncc4)n3)c3ccccc32)c(Cl)c1` [Example 2-6-1, 2-[1-(2-chloro-4-methoxybenzyl)-1H-indazol-3-yl]-5-methoxy-N-(pyridin-4-yl)pyrimidin-4-amine], the IC50 worked out at 4.7 nM in experiment [1] and 3.8 µM in the experiment on HeLa cells (setting [3]).
Regarding `CCOc1cc(F)c(Cn2nc(-c3ncc(OCCN4CCOCC4)c(Nc4ccncc4)n3)c3ccccc32)c(F)c1` [Example 4-12, 2-[1-(4-ethoxy-2,6-difluorobenzyl)-1H-indazol-3-yl]-5-[2-(morpholin-4-yl)ethoxy]-N-(pyridin-4-yl)pyrimidin-4-amine], the IC50 with HeLa cells (setting [3]) was determined as 9 µM.
Regarding `CCOc1cc(F)c(Cn2nc(-c3ncc(OCC(=O)N4CC(F)(F)C4)c(Nc4ccncc4)n3)c3ccccc32)c(F)c1` [Example 4-15, 1-(3,3-difluoroazetidin-1-yl)-2-({2-[1-(4-ethoxy-2,6-difluorobenzyl)-1H-indazol-3-yl]-4-(pyridin-4-ylamino)pyrimidin-5-yl}oxy)ethanone], the IC50 in the experiment on HeLa cells (setting [3]) was 3.9 µM.
Turning to `CCOc1cc(F)c(Cn2nc(-c3ncc(OCCSC)c(Nc4ccncc4)n3)c3ccccc32)c(F)c1` [Example 4-16, 2-[1-(4-ethoxy-2,6-difluorobenzyl)-1H-indazol-3-yl]-5-[2-(methylsulfanyl)ethoxy]-N-(pyridin-4-yl)pyrimidin-4-amine], the IC50 in the experiment with HeLa cells (setting [3]) was 4.4 µM.
For `CCOc1cc(F)c(Cn2nc(-c3ncc(OCCOCCO)c(Nc4ccncc4)n3)c3ccccc32)c(F)c1` [Example 4-17, 2-[2-({2-[1-(4-ethoxy-2,6-difluorobenzyl)-1H-indazol-3-yl]-4-(pyridin-4-ylamino)pyrimidin-5-yl}oxy)ethoxy] ethanol], in the experiment on HeLa cells (setting [4]), the IC50 came to 4.8 µM.
Consider `OC[C@@H](O)COc1cnc(-c2nn(Cc3ccccc3F)c3ccccc23)nc1Nc1ccncc1` [Example 15-6, (2R)-3-({2-[1-(2-fluorobenzyl)-1H-indazol-3-yl]-4-(pyridin-4-ylamino)pyrimidin-5-yl}oxy)propane-1,2-diol hydrochloride (1:1)], for which the IC50 in the experiment with HeLa cells (read-out: Biological Assay 2: Proliferation assay (HeLa cell line) median IC50, 4 days, crystal violet) was at least 10 µM.
For the compound `COc1cnc(-c2nn(Cc3ccccc3F)c3ccccc23)nc1N(c1ccncc1)c1ccncc1` [Example 24-4], in experiment [1], the IC50 turned out to be 4280 nM.
Take `CCOc1cc(F)c(Cn2nc(-c3ncc(OC)c(Nc4ccncc4C#N)n3)c3ccccc32)c(F)c1` [Example 24-5, 4-({2-[1-(4-ethoxy-2,6-difluorobenzyl)-1H-indazol-3-yl]-5-methoxypyrimidin-4-yl}amino)pyridine-3-carbonitrile]: in experiment [1], the IC50 turned out to be 11 nM.
On to `CCOc1cc(O)c(Cn2nc(-c3ncc(OC)c(Nc4cc(C)nc(C)c4)n3)c3ccccc32)c(F)c1` [Example 24-6, 2-[(3-[4-[(2,6-dimethylpyridin-4-yl)amino]-5-methoxypyrimidin-2-yl}-1H-indazol-1-yl)methyl]-5-ethoxy-3-fluorophenol], for which the IC50 in experiment [1] came out at 940 nM.
The same measure, in the same setting: then `N#Cc1cnccc1Nc1nc(-c2nn(Cc3ccccc3F)c3ccccc23)ncc1Oc1ccncc1C#N` [Example 26-2], with 2400 nM.
For the compound `COc1cnc(-c2nn(Cc3ccc(C(=O)O)cc3Cl)c3ccccc23)nc1Nc1ccncc1` [Example 28-1, 3-chloro-4-({3-[5-methoxy-4-(pyridin-4-ylamino)pyrimidin-2-yl]-1H-indazol-1-yl}methyl)benzoic acid], the IC50 in experiment [1] turned out to be 3700 nM.
As for `N#Cc1cnc(-c2nn(Cc3ccccc3F)c3ccccc23)nc1Nc1ccncc1` [Example 31-1, 2-[1-(2-fluorobenzyl)-1H-indazol-3-yl]-4-(pyridin-4-ylamino)pyrimidine-5-carbonitrile], the IC50 in experiment [1] amounted to 4700 nM.
For `COc1ccc(Cn2nc(-c3ncc(OC)c(Nc4ccnc(C)c4)n3)c3ccccc32)cc1` [Example 34-4, 5-methoxy-2-[1-(4-methoxybenzyl)-1H-indazol-3-yl)-N-(2-methylpyridin-4-yl)pyrimidin-4-amine], the IC50 in experiment [1] is 120 nM.
Consider `CCOc1cc(F)c(Cn2nc(-c3nccc(N(c4ccncc4)C(F)F)n3)c3ccccc32)c(F)c1` [Example 35-1, N-(difluoromethyl)-2-[1-(4-ethoxy-2,6-difluorobenzyl)-1H-indazol-3-yl]-N-(pyridin-4-yl)pyrimidin-4-amine], for which, in experiment [1], the IC50 turned out to be 1300 nM.
Regarding `CCOc1cc(F)c(Cn2nc(-c3ncc(OCCN)c(Nc4ccncc4)n3)c3ccccc32)c(F)c1` [Example 38-1, 5-(2-aminoethoxy)-2-[1-(4-ethoxy-2,6-difluorobenzyl)-1H-indazol-3-yl]-N-(pyridin-4-yl)pyrimidin-4-amine], in the experiment with HeLa cells (setting [4]), the IC50 is 1.4 µM.
For the compound `COc1cnc(-c2nn(Cc3c(Cl)ccc(N)c3Cl)c3ccccc23)nc1Nc1ccncc1` [Example 40-1, 2-[1-(3-amino-2,6-dichlorobenzyl)-1H-indazol-3-yl]-5-methoxy-N-(pyridin-4-yl)pyrimidin-4-amine], the IC50 in experiment [1] was found to be 39 nM.
